Assay [1] concerns the target KHK-C expressed in NRK-52E cells (Homo sapiens (Human), UniProt P50053). Briefly: KHK-C Cell-based Assay (EC50), NRK CTG, fructose-mediated ATP-depletion.
A further assay has as its target human KHK-C (Homo sapiens (Human), UniProt P50053). The assay is described as follows: KHK Biochemical Assay (IC50), ADP-Glo, KHK-C. As to conditions: average of at least two separate assays. Put shortly:
(§1)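 His-tagged enzyme expressed in BL21 (DE3), Ni-NTA purified. Compounds, serially diluted 1:3 in DMSO, pre-incubated 30 min with enzyme in 50 mM Hepes pH 7.4, 140 mM KCl, 5 mM MgCl2, 0.01% Triton-X, then ATP and fructose added; 4 h at room temperature. ADP formation read by ADP-Glo luminescence.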
In general terms: ADP-Glo first removes unused ATP, then detects ADP through luciferase.

The next assay concerns the target human KHK-A (Homo sapiens (Human), UniProt P50053). The assay is described as follows: KHK Biochemical Assay (IC50), ADP-Glo, KHK-A. As to conditions: average of at least two separate assays. Put shortly: as §1

Molecules are shown by their SMILES.

Sequence of human KHK-A (P50053 other isoform, or with tags, fused parts or gaps): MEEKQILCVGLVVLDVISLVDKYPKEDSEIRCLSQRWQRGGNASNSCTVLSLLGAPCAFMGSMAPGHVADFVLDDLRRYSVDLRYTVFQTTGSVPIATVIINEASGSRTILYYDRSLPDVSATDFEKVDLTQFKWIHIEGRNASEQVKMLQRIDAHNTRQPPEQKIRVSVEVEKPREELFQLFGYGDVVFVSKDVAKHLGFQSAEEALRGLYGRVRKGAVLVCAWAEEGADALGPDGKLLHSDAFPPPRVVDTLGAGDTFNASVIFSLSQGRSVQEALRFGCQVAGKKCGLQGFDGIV
Sequence of KHK-C expressed in NRK-52E cells (P50053 whole entry): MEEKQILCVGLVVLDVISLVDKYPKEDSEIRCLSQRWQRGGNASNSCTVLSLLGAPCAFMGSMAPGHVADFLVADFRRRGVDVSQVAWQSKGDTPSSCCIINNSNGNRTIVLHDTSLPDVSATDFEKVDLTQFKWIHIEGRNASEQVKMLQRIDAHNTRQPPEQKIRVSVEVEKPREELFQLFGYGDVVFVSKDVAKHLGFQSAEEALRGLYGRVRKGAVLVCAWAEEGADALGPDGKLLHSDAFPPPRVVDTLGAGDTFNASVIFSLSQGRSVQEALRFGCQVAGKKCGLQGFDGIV
Sequence of human KHK-C (P50053 whole entry): as above

`C[C@H]1[C@H](F)CN1c1nc2c(c(-c3cccc(CNS(C)(=O)=O)c3)n1)CCC2` [Example 284] showed an EC50 in assay [1] of 0.0557 µM. In addition, the half-inhibitory concentration (IC50) against human KHK-C (ADP-Glo) is 0.0164 µM; against human KHK-A (ADP-Glo), 0.0218 µM.
For the molecule `C[C@H]1CCN1c1nc2c(c(-c3ccc(C4(C(=O)O)CC4)cc3)n1)CCC2` [Example 455, 1-[4-[2-[(2S)-2-methylazetidin-1-yl]-6,7-dihydro-5H-cyclopenta[d]pyrimidin-4-yl]phenyl]cyclopropanecarboxylic acid], the concentration for a half-maximal effect (EC50) in assay [1] was > 5 µM. Further, the IC50 worked out at 0.248 µM against human KHK-C and 0.497 µM against human KHK-A.
In assay [1], `Cc1ccc(-c2nc(N3CC[C@@H]3C)nc3c2CCC3)cc1S(N)(=O)=O` [Example 123, (S)-2-methyl-5-(2-(2-methylazetidin-1-yl)-6,7-dihydro-5H-cyclopenta[d]pyrimidin-4-yl)benzenesulfonamide] displayed an EC50 of 0.0624 µM. In addition, the concentration for half-maximal inhibition (IC50) worked out at 0.0305 µM at human KHK-C (ADP-Glo) and 0.0402 µM against human KHK-A (ADP-Glo).
Taken in the same sequence, the figures for `C[C@H]1C[C@H](C)N1c1nc2c(c(-c3cccc(S(N)(=O)=O)c3)n1)CCC2` [Example 208, 3-[2-[(28,48)-2,4-dimethylazetidin-1-yl]-6,7-dihydro-5H-cyclopenta[d]pyrimidin-4-yl]benzenesulfonamide] were 0.0364 µM, 0.0466 µM and 0.0367 µM.
In the same order, the values of `C[C@H]1[C@H](O)CN1c1nc2c(c(-c3cccc(NS(C)(=O)=O)c3)n1)CCC2` [Example 43, N-(3-(2-((2S,3R)-3-hydroxy-2-methylazetidin-1-yl)-6,7-dihydro-5H-cyclopenta[d]pyrimidin-4-yl)phenyl)methanesulfonamide] are 0.225 µM, 0.0481 µM and 0.0668 µM.
Taken in the same sequence, the figures for `C[C@H]1CCN1c1nc2c(c(-c3ccc(CO)s3)n1)CCC2` [Example 375, [5-[2-[(2S)-2-methylazetidin-1-yl]-6,7-dihydro-5H-cyclopenta[d]pyrimidin-4-yl]-2-thienyl]methanol] were 0.084 µM, 0.0182 µM and 0.0303 µM.
`C[C@H]1[C@H](O)CN1c1nc2c(c(-c3ccc4c(c3)C(=O)N(C)C4)n1)CCC2` [Example 204]: in assay [1], a half-maximal response (EC50) required 0.109 µM. For the same molecule, the results for the IC50 against human KHK-C (ADP-Glo) and at human KHK-A (ADP-Glo) were 0.0372 µM and 0.118 µM, respectively.
Consider `C[C@H]1CCN1c1nc2c(c(-c3cccc(CNC(=O)CO)c3)n1)CCC2` [Example 231, 2-hydroxy-N-[[3-[2-[(2S)-2-methylazetidin-1-yl]-6,7-dihydro-5H-cyclopenta[d]pyrimidin-4-yl]phenyl]methyl]acetamide], for which a half-maximal response in assay [1] (EC50) required 0.199 µM. For the same molecule, the figures for the concentration for half-maximal inhibition (IC50) against human KHK-C (ADP-Glo) and against human KHK-A (ADP-Glo) were 0.0506 µM and 0.0567 µM, respectively.
With `C[C@H]1CCN1c1nc(-c2ccccc2)c2c(ncn2C)n1` [Example 211, 7-methyl-2-[(2S)-2-methylazetidin-1-yl]-6-phenyl-purine], in assay [1], the 50% effective concentration (EC50) is > 50 µM. Besides, the half-inhibitory concentration (IC50) against human KHK-C (ADP-Glo) is 4.76 µM; against human KHK-A (ADP-Glo) it was 7.31 µM.
Taken in the same sequence, the figures for `C[C@H]1CCN1c1nc2c(c(-c3cccc(S(=N)(=O)C4CCOCC4)c3)n1)CCC2` (stereo partly drawn) [Example 880, imino(3-(2-((S)-2-methylazetidin-1-yl)-6,7-dihydro-5H-cyclopenta[d]pyrimidin-4-yl)phenyl)(tetrahydro-2H-pyran-4-yl)-λ^6-sulfanone] were > 0.1 µM, 0.0316 µM and 0.0225 µM.
Taken in the same sequence, the figures for `C[C@H]1CCN1c1nc2c(c(-c3ccc4ccc(=O)n(CCC(=O)O)c4c3)n1)CCC2` [Example 133, (S)-3-(7-(2-(2-methylazetidin-1-yl)-6,7-dihydro-5H-cyclopenta[d]pyrimidin-4-yl)-2-oxoquinolin-1(2H)-yl)propanoic acid] were > 5 µM, 0.141 µM and 0.236 µM.
For `C[C@H]1CCN1c1nc2c(c(-c3cccc(C4CC(C(=O)O)C4)c3)n1)CCC2` (stereo partly drawn) [Example 439, 3-[3-[2-[(2S)-2-methylazetidin-1-yl]-6,7-dihydro-5H-cyclopenta[d]pyrimidin-4-yl]phenyl]cyclobutanecarboxylic acid], a half-maximal response in assay [1] (EC50) required 0.123 µM. Moreover, the values for the IC50 against human KHK-C and against human KHK-A were 0.0131 µM and 0.0154 µM, respectively.
On to `C[C@H]1CCN1c1nc2c(c(-c3ccc4c(=O)[nH]c(=O)[nH]c4c3)n1)CCC2` [Example 426, 7-[2-[(2S)-2-methylazetidin-1-yl]-6,7-dihydro-5H-cyclopenta[d]pyrimidin-4-yl]-1H-quinazoline-2,4-dione], for which, in assay [1], it took 0.0928 µM to reach a half-maximal effect (EC50). The results for the IC50 at human KHK-C and on human KHK-A were 0.0401 µM and 0.0179 µM, respectively.
On to `C[C@H]1CCN1c1nc2c(c(-c3ccc(CO)cc3)n1)CCC2` [Example 374, [4-[2-[(2S)-2-methylazetidin-1-yl]-6,7-dihydro-5H-cyclopenta[d]pyrimidin-4-yl]phenyl]methanol], for which the EC50 in assay [1] turned out to be 0.0735 µM. Further, the IC50 is 0.0404 µM against human KHK-C (ADP-Glo) and 0.0478 µM on human KHK-A (ADP-Glo).
In the same order, the values of `C[C@H]1CCN1c1nc2c(c(-c3cccc(CN4CCCCC4)c3)n1)CCC2` [Example 345, 2-[(2S)-2-methylazetidin-1-yl]-4-[3-(1-piperidylmethyl)phenyl]-6,7-dihydro-5H-cyclopenta[d]pyrimidine] are 0.0537 µM, 0.0451 µM and 0.0126 µM.
In the same order, the values of `C[C@H]1CCN1c1nc2c(c(-c3cccc(C(=O)NCC(=O)O)c3)n1)CCC2` [Example 66, (S)-(3-(2-(2-methylazetidin-1-yl)-6,7-dihydro-5H-cyclopenta[d]pyrimidin-4-yl)benzoyl)glycine] are 35.5 µM, 0.0545 µM and 0.0648 µM.
Taken in the same sequence, the figures for `C[C@H]1CCN1c1nc2c(c(-c3cccc(CN4CC(O)C4)c3)n1)CCC2` [Example 350, 1-[[3-[2-[(2S)-2-methylazetidin-1-yl]-6,7-dihydro-5H-cyclopenta[d]pyrimidin-4-yl]phenyl]methyl]azetidin-3-ol] were 0.014 µM, 0.0193 µM and 0.0168 µM.
Consider `C[C@H]1CCN1c1nc2c(c(-c3cccc([C@@H]4[C@@H](C(=O)O)C4(C)C)c3)n1)CCC2` [Example 435, (1R,3R)-2,2-dimethyl-3-(3-(2-((S)-2-methylazetidin-1-yl)-6,7-dihydro-5H-cyclopenta[d]pyrimidin-4-yl)phenyl)cyclopropane-1-carboxylic acid], for which, in assay [1], it took 0.0784 µM to reach a half-maximal effect (EC50). In addition, on human KHK-C, the midpoint of inhibition, the IC50, lay at 0.0054 µM.
In the same order, the values of `C[C@@H](OCc1ccccc1)[C@H]1C(O)CN1c1nc2c(c(-c3ccc(C(N)=O)cc3)n1)CCC2` (stereo partly drawn) [Example 438, 4-[2-[(2R)-2-[(1R)-1-benzyloxyethyl]-3-hydroxy-azetidin-1-yl]-6,7-dihydro-5H-cyclopenta[d]pyrimidin-4-yl]benzamide] are > 5 µM and > 5 µM.
With `C[C@H]1[C@H](O)CN1c1nc(-c2ccc(C(N)=O)c(OC(F)(F)F)c2)c2c(n1)C(F)(F)CC2` [Example 183, 4-(7,7-difluoro-2-((2S,3R)-3-hydroxy-2-methylazetidin-1-yl)-6,7-dihydro-5H-cyclopenta[d]pyrimidin-4-yl)-2-(trifluoromethoxy)benzamide], the EC50 in assay [1] was 0.0891 µM. The IC50 on human KHK-C (ADP-Glo) was 0.0213 µM.
Molecule `C[C@@H](NS(C)(=O)=O)c1ccc(-c2nc(N3CC[C@@H]3C)nc3c2CCC3(F)F)cc1` [Example 748, N-[(1R)-1-[4-[7,7-difluoro-2-[(2S)-2-methylazetidin-1-yl]-5,6-dihydrocyclopenta[d]pyrimidin-4-yl]phenyl]ethyl]methanesulfonamide] registered a concentration for a half-maximal effect (EC50) in assay [1] of 0.0859 µM. For the same molecule, it took 0.0232 µM to reach half-maximal inhibition on human KHK-C (IC50).
Taken in the same sequence, the figures for `C[C@H]1CCN1c1nc2c(c(-c3nc4ccc(C(=O)O)cc4n3C)n1)CCC2` [Example 395, 3-methyl-2-[2-[(2S)-2-methylazetidin-1-yl]-6,7-dihydro-5H-cyclopenta[d]pyrimidin-4-yl]benzimidazole-5-carboxylic acid] were > 5 µM and 0.329 µM.
Taken in the same sequence, the figures for `C[C@H]1CCN1c1nc2c(c(-c3ccc(C4(NS(C)(=O)=O)CCC4)cc3)n1)CCC2` [Example 743, N-[1-[4-[2-[(2S)-2-methylazetidin-1-yl]-6,7-dihydro-5H-cyclopenta[d]pyrimidin-4-yl]phenyl]cyclobutyl]methanesulfonamide] were 1.68 µM and 1.02 µM.
Taken in the same sequence, the figures for `N#CC1CCN1c1nc(-c2ccc(C(N)=O)cc2)c2c(n1)C(F)(F)CC2` (centres unmarked) [Example 706, 4-(2-(2-cyanoazetidin-1-yl)-7,7-difluoro-6,7-dihydro-5H-cyclopenta[d]pyrimidin-4-yl)benzamide] were 0.366 µM and 0.0672 µM.
In the case of `CC1CCC1c1nc2c(c(-c3ccc(C(N)=O)cc3)n1)CCC2` (centres unmarked) [Example 501, 4-(2-(2-methylcyclobutyl)-6,7-dihydro-5H-cyclopenta[d]pyrimidin-4-yl)benzamide], in assay [1], the half-maximal effective concentration (EC50) amounted to 0.597 µM. On human KHK-C, this molecule gave a concentration for half-maximal inhibition (IC50) of 0.212 µM.
Taken in the same sequence, the figures for `C[C@H]1CCCN1c1nc2c(c(-c3ccc(C(N)=O)cc3)n1)CCC2` [Example 403, (S)-4-(2-(2-methylpyrrolidin-1-yl)-6,7-dihydro-5H-cyclopenta[d]pyrimidin-4-yl)benzamide] were 0.242 µM and 0.217 µM.
Taken in the same sequence, the figures for `C[C@H]1CCN1c1nc2c(c(-c3ccc4c(c3)CS(=O)(=O)C4)n1)CCC2` [Example 422, (S)-5-(2-(2-methylazetidin-1-yl)-6,7-dihydro-5H-cyclopenta[d]pyrimidin-4-yl)-1,3-dihydrobenzo[c]thiophene 2,2-dioxide] were 0.24 µM and 0.095 µM.

The EC50 is the concentration needed to bring the measured effect to its halfway point. Read a low EC50 as higher potency in that assay. The term IC50 denotes the concentration at which inhibition is half-maximal. A high value points to weaker potency.

The record behind these values is US12410160B2 (Gilead Sciences, Inc., priority 2021, dated 2025).
